Measured values from patent US4356186A, “Acetic acid derivatives and composition containing the same” (priority 1980, dated 1982).
Read-outs that look alike come from different tables or passages of the source.

Key:
[1] = test system: carrageenin-induced hind paw edema; assay: Anti-inflammatory activity (carrageenin-induced hind paw edema in rats); assay type: in vivo, Male Wistar rats; conditions: for inhibition in vivo at 0.2 mg/kg / inhibition in vivo at 0.4 mg/kg / inhibition in vivo at 0.8 mg/kg / inhibition in vivo at 1.6 mg/kg / inhibition in vivo at 3.2 mg/kg / inhibition in vivo at 1 mg/kg / inhibition in vivo at 4 mg/kg / inhibition in vivo at 5 mg/kg / inhibition in vivo at 2 mg/kg: Rattus norvegicus, po; for inhibition in vivo at 0.2 mg/kg: 0.2 mg/kg p.o.; for inhibition in vivo at 0.4 mg/kg: 0.4 mg/kg p.o.; for inhibition in vivo at 0.8 mg/kg: 0.8 mg/kg p.o.; for inhibition in vivo at 1.6 mg/kg: 1.6 mg/kg p.o.; for inhibition in vivo at 3.2 mg/kg: 3.2 mg/kg p.o.; for inhibition in vivo at 1 mg/kg: 1 mg/kg p.o.; for inhibition in vivo at 4 mg/kg: 4 mg/kg p.o.; for inhibition in vivo at 5 mg/kg: 5 mg/kg p.o.; for inhibition in vivo at 2 mg/kg: 2 mg/kg p.o.
Experimental: Anti-inflammatory activity (carrageenin-induced hind paw edema in rats)
The test was carried out in a similar manner as disclosed in Proc. Soc. Exptl.
Male Wistar rats, weighing 100-300 g, were used. A 1% aqueous carrageenin solution (0.1 ml) was administered subcutaneously into the hind foot pad of rats. Two and three hours after the carrageenin injection, the paw volume was measured and the swelling rate was calculated based on the paw volume before the carrageenin injection. The inhibitory rate was determined as compared with the average swelling rate of the control group to which only vehicle was administered. The test compounds were administered orally one hour before the carrageenin injection.

[2] = test system: stomach ulcer; assay: Gastrointestinal ulcerogenicity; assay type: in vivo, Male Wistar rats; parameters: key to Average score of stomach ulcer: ulcer score 1 to 4, 4 = most severe ulcer; conditions: for Number of rats having a score of stomach ulcer of 2 or more/total number of rats used / Average score of stomach ulcer: after 6 hours; for Average score of stomach ulcer: score 1 to 4; for gastrointestinal ulcerogenicity compared with the known aspirin: in words, from Table 2
Experimental: Gastrointestinal ulcerogenicity
The test was carried out in a similar manner as disclosed in Arzneim. Forsch., 19, 36 (1969).
Male Wistar rats, weighing 130-180 g, were used. After the rats were fasted for 24 hours, the test compound was orally administered one time. After 6 hours, the rats were killed and the stomach was removed. […] The degree of stomach ulcer was scored from 1 to 4, wherein 4 is the most severe ulcer. In Table 2, there are shown the average score of stomach ulcer in each dose and also the ratio of the number of rats having a score of stomach ulcer of 2 or more to total number of rats used.

[3] = test system: male Wistar rats; assay: Acute lethal toxicity; assay type: in vivo; conditions: from LD50, single oral administration
Experimental: (§1) The mortality was observed on the 7th day after single oral administration of test compounds in male Wistar rats, and the LD50 was calculated according to the method of Litchfield and Wilcoxon.

[4] = Acute lethal toxicity; assay type: in vivo; conditions: rat, in vivo; single oral administration, mortality on the 7th day, Litchfield and Wilcoxon
Experimental: as §1

[5] = 2 h, two hours, read-out: Inhibitory rate, two hours after the carrageenin injection
[6] = 3 h, three hours, read-out: Inhibitory rate, three hours after the carrageenin injection

Row | SMILES | Number of rats having a score of stomach ulcer of 2 or more/total number of rats used ([2]; 16 mg/kg p.o.) | Average score of stomach ulcer ([2]; 16 mg/kg p.o.) | Number of rats having a score of stomach ulcer of 2 or more/total number of rats used ([2]; 32 mg/kg p.o.) | Average score of stomach ulcer ([2]; 32 mg/kg p.o.) | Number of rats having a score of stomach ulcer of 2 or more/total number of rats used ([2]; 64 mg/kg p.o.) | Average score of stomach ulcer ([2]; 64 mg/kg p.o.) | inhibition in vivo at 5 mg/kg [1, 5] [%] | inhibition in vivo at 5 mg/kg [1, 6] [%] | gastrointestinal ulcerogenicity compared with the known aspirin [2] | inhibition in vivo at 2 mg/kg [1, 5] [%] | inhibition in vivo at 2 mg/kg [1, 6] [%] | further results
1 | CC(C(=O)O)c1ccc2c(c1)SCC1CCCCC1C2=O (stereo not shown) [F, 2-(6,6a,7,8,9,10,10a,11-Octahydro-11-oxodibenzo[b,e]thiepin-3-yl)propionicacid-A] | 2/6 | 1.00 | 2/6 | 1.00 | 6/9 | 1.67 | – | – | – | – | – | inhibition in vivo at 0.2 mg/kg [1, 5]: 8.6%; inhibition in vivo at 0.4 mg/kg [1, 5]: 14.9%; inhibition in vivo at 0.8 mg/kg [1, 5]: 20.5%; inhibition in vivo at 1.6 mg/kg [1, 5]: 28.4%; inhibition in vivo at 3.2 mg/kg [1, 5]: 36.4%; inhibition in vivo at 0.2 mg/kg [1, 6]: 6.7%; inhibition in vivo at 0.4 mg/kg [1, 6]: 11.6%; inhibition in vivo at 0.8 mg/kg [1, 6]: 12.6%; inhibition in vivo at 1.6 mg/kg [1, 6]: 20.3%; inhibition in vivo at 3.2 mg/kg [1, 6]: 30.6%; anti-inflammatory activity compared with the known indomethacin ([1]; in words, from Table 1): comparable or superior to that of the known indomethacin
2 | CC(C(=O)O)c1ccc2c(c1)SCC1CCCCC1C2=O (stereo not shown) [H, Calcium 2-(6,6a,7,8,9,10,10a,11-octahydro-11-oxodibenzo[b,e]thiepin-3-yl)propionate] | 1/3 | 1.00 | 2/3 | 1.33 | – | – | – | – | – | – | – | inhibition in vivo at 1 mg/kg [1, 5]: 31.4%; inhibition in vivo at 4 mg/kg [1, 5]: 39.5%; inhibition in vivo at 1 mg/kg [1, 6]: 26.2%; inhibition in vivo at 4 mg/kg [1, 6]: 35.7%
3 | CCOC(=O)C(C)c1ccc2c(c1)SCC1CCCCC1C2=O (stereo not shown) [I, Ethyl 2-(6,6a,7,8,9,10,10a,11-octahydro-11-oxodibenzo[b,e]thiepin-3-yl)propionate] | – | – | 0/6 | 0.33 | 3/6 | 1.00 | 42.2 | 38.3 | far less gastrointestinal ulcerogenicity than the known aspirin | – | – | Number of rats having a score of stomach ulcer of 2 or more/total number of rats used ([2]; 8 mg/kg p.o.): 0/3; Average score of stomach ulcer ([2]; 8 mg/kg p.o.): 0.00
4 | CCCCOC(=O)C(C)c1ccc2c(c1)SCC1CCCCC1C2=O (stereo not shown) [J, Butyl 2-(6,6a,7,8,9,10,10a,11-octahydro-11-oxodibenzo[b,e]thiepin-3-yl)propionate] | 0/3 | 0.33 | 3/6 | 1.33 | 3/6 | 1.50 | 31.8 | 26 | – | 21.5 | 11.5 | –
5 | CC(C(=O)OCCc1ccccc1)c1ccc2c(c1)SCC1CCCCC1C2=O (stereo not shown) [L, Phenethyl 2-(6,6a,7,8,9,10,10a,11-octahydro-11-oxodibenzo[b,e]thiepin-3-yl)propionate] | – | – | 1/9 | 0.56 | 0/6 | 0.67 | 44.8 | 39.1 | far less gastrointestinal ulcerogenicity than the known aspirin | 20.7 | 24.8 | toxicity relative to that of indomethacin [3]: about 1/12; LD50 at 168 h [4]: 230 mg/kg
6 | CC(C(=O)OCc1ccccn1)c1ccc2c(c1)SCC1CCCCC1C2=O (stereo not shown) [O, 2-Pyridylmethyl 2-(6,6a,7,8,9,10,10a,11-octahydro-11-oxodibenzo[b,e]thiepin-3-yl)propionate] | – | – | 2/6 | 0.67 | 4/6 | 1.83 | 30.8 | 30.6 | – | 31.4 | 28.8 | –
7 | CC(C(=O)OCCc1ccccn1)c1ccc2c(c1)SCC1CCCCC1C2=O (stereo not shown) [P, 2-(2-Pyridyl)ethyl 2-(6,6a,7,8,9,10,10a,11-octahydro-11-oxodibenzo[b,e]thiepin-3-yl)propionate] | – | – | 0/6 | 0.17 | 3/6 | 0.50 | 27.6 | 25.5 | far less gastrointestinal ulcerogenicity than the known aspirin | – | – | –
